Data published in the supplement of paper PMC10307832.

Assays:
Test in all cases: relative viability (nuclei count vs DMSO), 5 days (fraction); higher = more cells survive
[1] = compound: Cc1ccc2nc(NCCN)c3ncc(C)n3c2c1 + CCNC(=O)c1noc(-c2cc(C(C)C)c(O)cc2O)c1-c1ccc(CN2CCOCC2)cc1 [Luminespib] (partner 0.01 µM)
Procedure, shortened: (§1)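 Medians of duplicate plates are given as relative viability. That measure is the nuclei count in treated wells divided by the count in vehicle wells. Counts were taken on 4× images of lung cancer cell lines in 1536-well plates, 5 days after pin-tool dosing the day after seeding with one drug alone or a fixed anchor-drug dose plus five library-drug doses (not always all listed) in √10 steps.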

Salubrinal + Palbociclib = compound: O=C(/C=C/c1ccccc1)NC(NC(=S)Nc1cccc2cccnc12)C(Cl)(Cl)Cl [Salubrinal] + CC(=O)c1c(C)c2cnc(Nc3ccc(N4CCNCC4)cn3)nc2n(C2CCCC2)c1=O [Palbociclib] (partner 0.5 µM)
Procedure, shortened: as §1

[2] = compound: Cc1ccc2nc(NCCN)c3ncc(C)n3c2c1 + NC(=O)Nc1cc(-c2cccc(F)c2)sc1C(=O)N[C@H]1CCCNC1 [AZD7762] (partner 0.2 µM)
Procedure, shortened: as §1

[3] = compound: Cc1ccc2nc(NCCN)c3ncc(C)n3c2c1 + CC(=O)c1c(C)c2cnc(Nc3ccc(N4CCNCC4)cn3)nc2n(C2CCCC2)c1=O [Palbociclib] (partner 0.5 µM)
Procedure, shortened: as §1

Row | Cell Line | relative viability ([1]; first compound 0.04 µM) | relative viability ([1]; first compound 0.1265 µM) | relative viability ([1]; first compound 0.4 µM) | relative viability ([1]; first compound 1.265 µM) | relative viability ([1]; first compound 4 µM) | relative viability (Salubrinal + Palbociclib; first compound 0.08 µM) | relative viability (Salubrinal + Palbociclib; first compound 0.253 µM) | relative viability (Salubrinal + Palbociclib; first compound 0.8 µM) | relative viability (Salubrinal + Palbociclib; first compound 2.53 µM) | relative viability (Salubrinal + Palbociclib; first compound 8 µM) | relative viability ([2]; first compound 0.04 µM) | relative viability ([2]; first compound 0.1265 µM) | relative viability ([2]; first compound 0.4 µM) | relative viability ([2]; first compound 1.265 µM) | relative viability ([2]; first compound 4 µM) | relative viability ([3]; first compound 0.04 µM) | relative viability ([3]; first compound 0.1265 µM) | relative viability ([3]; first compound 0.4 µM) | relative viability ([3]; first compound 1.265 µM) | relative viability ([3]; first compound 4 µM)
1 | HCC-44 | 1.07 | 1.04 | 1.06 | 1.05 | 0.591 | 1.03 | 0.941 | 0.971 | 0.998 | 1 | 0.988 | 1.05 | 0.933 | 0.992 | 1.02 | 0.934 | 0.94 | 0.914 | 0.894 | 0.99
2 | HCC-827 | 0.741 | 0.589 | 0.689 | 0.58 | 0.8 | 0.49 | 0.441 | 0.514 | 0.475 | 0.48 | 0.222 | 0.265 | 0.224 | 0.207 | 0.18 | 0.437 | 0.517 | 0.473 | 0.501 | 0.495
3 | NCI-H2342 | 0.797 | 0.638 | 0.616 | 0.719 | 0.677 | 0.465 | 0.516 | 0.552 | 0.49 | 0.531 | 0.548 | 0.655 | 0.479 | 0.452 | 0.479 | 0.626 | 0.552 | 0.479 | 0.532 | 0.531
4 | NCI-H2347 | 1.14 | 1.3 | 0.362 | 0.248 | 0.356 | 0.452 | 0.462 | 0.415 | 0.388 | 0.387 | 0.719 | 0.733 | 0.687 | 0.794 | 0.636 | 0.431 | 0.451 | 0.417 | 0.433 | 0.455
5 | PC-14 | 0.135 | 0.114 | 0.179 | 0.151 | 0.18 | 0.708 | 0.434 | 0.609 | 0.47 | 0.384 | 0.388 | 0.298 | 0.239 | 0.399 | 0.287 | 0.447 | 0.488 | 0.475 | 0.386 | 0.244
6 | NCI-H1651 | 0.801 | 0.805 | 0.997 | 0.836 | 0.839 | 0.561 | 0.479 | 0.564 | 0.513 | 0.508 | 0.536 | 0.511 | 0.409 | 0.46 | 0.445 | 0.545 | 0.515 | 0.518 | 0.512 | 0.512
7 | HARA | 0.822 | 0.753 | 0.622 | 0.681 | 0.681 | 0.294 | 0.281 | 0.252 | 0.269 | 0.236 | 0.401 | 0.33 | 0.256 | 0.274 | 0.337 | 0.2 | 0.236 | 0.237 | 0.222 | 0.268
8 | NCI-H1650 | 0.242 | 0.213 | 0.195 | 0.214 | 0.212 | 0.314 | 0.297 | 0.334 | 0.366 | 0.375 |  |  |  |  |  | 0.303 | 0.375 | 0.324 | 0.349 | 0.226
9 | NCI-H1395 | 0.828 | 0.701 | 0.664 | 0.534 | 0.761 | 0.638 | 0.648 | 0.591 | 0.62 | 0.587 | 0.409 | 0.435 | 0.43 | 0.422 | 0.398 | 0.647 | 0.613 | 0.597 | 0.546 | 0.557
10 | LU99A | 0.274 | 0.28 | 0.242 | 0.254 | 0.261 | 0.419 | 0.425 | 0.458 | 0.388 | 0.447 | 0.485 | 0.425 | 0.314 | 0.286 | 0.354 | 0.468 | 0.447 | 0.434 | 0.456 | 0.41
11 | NCI-H1355 | 0.844 | 0.73 | 0.722 | 0.691 | 0.732 | 0.423 | 0.472 | 0.412 | 0.402 | 0.364 | 0.75 | 0.685 | 0.72 | 0.644 | 0.763 | 0.46 | 0.4 | 0.406 | 0.409 | 0.376
12 | HCC-78 |  |  |  |  |  | 0.462 | 0.403 | 0.488 | 0.464 | 0.539 | 0.828 | 0.72 | 0.616 | 0.752 | 0.586 | 0.499 | 0.475 | 0.484 | 0.437 | 0.369
13 | NCI-H1563 | 0.491 | 0.509 | 0.517 | 0.466 | 0.485 |  |  |  |  |  |  |  |  |  |  |  |  |  |  | 
14 | HCC-15 | 0.463 | 0.239 | 0.258 | 0.373 | 0.16 | 0.832 | 0.589 | 0.844 | 0.777 | 0.703 | 1.23 | 1.27 | 1.19 | 1.17 | 1.18 | 0.789 | 0.773 | 0.616 | 0.708 | 0.485
15 | EKVX | 0.955 | 0.842 | 0.886 | 0.843 | 0.93 | 0.408 | 0.457 | 0.791 | 0.412 | 0.37 | 0.723 | 0.704 | 0.693 | 0.682 | 0.525 | 0.441 | 0.358 | 0.36 | 0.351 | 0.295
16 | NCI-H2087 | 0.214 | 0.2 | 0.152 | 0.267 | 0.162 | 0.214 | 0.235 | 0.17 | 0.234 | 0.206 | 1.35 | 1.25 | 1.27 | 1.28 | 1.26 | 0.253 | 0.271 | 0.174 | 0.286 | 0.323
17 | LK-2 | 0.198 | 0.194 | 0.182 | 0.185 | 0.197 | 0.708 | 0.781 | 0.683 | 0.597 | 0.788 | 0.393 | 0.612 |  |  | 0.347 | 0.502 | 0.811 |  |  | 0.725
